Experimental data taken from US6525032B2, “Purine derivatives” (Pfizer Inc, priority 2000, dated 2003).

Test system: neutrophils activated by fMLP
Test: superoxide production from human neutrophils activated by fMLP (cytochrome C reduction)
Type: cell-based
Settings: Neutrophil; fMLP-induced superoxide production, neutrophils from human peripheral blood, cytochalasin B priming, adenosine deaminase present; read-out: IC50 (concentration giving 50% inhibition compared to the control response to fMLP)
Protocol: This is evaluated by determining the compound profile in an assay where superoxide production was measured from neutrophils activated by fMLP. Neutrophils were isolated from human peripheral blood using dextran sedimentation followed by centrifugation through Ficoll-Hypaque solution. Any contaminating erythrocytes in the granulocyte pellet were removed by lysis with ice-cold distilled water. Superoxide production from the neutrophils was induced by fMLP in the presence of a priming concentration of cytochalasin B. Adenosine deaminase was included in the assay to remove any endogenously produced adenosine that might suppress superoxide production. The effect of the compound on the fMLP-induced response was monitored colorometrically from the reduction of cytochrome C within the assay buffer. The potency of the compounds was assessed by the concentration giving 50% inhibition (IC50) compared to the control response to fMLP.

Structure (SMILES)	IC50 [nM]
CCNC(=O)[C@H]1O[C@@H](n2cnc3c(NC(CC)CC)nc(C(=O)NCCN4CCCCC4)nc32)[C@H](O)[C@@H]1O [Example 10, 9-{(2R,3R,4S, 5S)-5-[(ethylamino)carbonyl]-3,4-dihydroxytetrahydro-2-furanyl}-6-[(1-ethylpropyl)amino]-N-[2-(1-piperidinyl)ethyl]-9H-purine-2-carboxamide]	< 40
CCNC(=O)[C@H]1O[C@@H](n2cnc3c(NCC(c4ccccc4)c4ccccc4)nc(C(=O)NCCN4CCC(C(C)C)CC4)nc32)[C@H](O)[C@@H]1O [Example 12, 6-[(2,2-diphenylethyl)amino]-9-{(2R,3R,4S,5S)-5-[(ethylamino)carbonyl]-3,4-dihydroxytetrahydro-2-furanyl}-N-[2-(4-isopropyl-1-piperidinyl)ethyl]-9H-purine-2-carboxamide]	< 40
CCNC(=O)[C@H]1O[C@@H](n2cnc3c(NCC(c4ccccc4)c4ccccc4)nc(C(=O)NCCCNC(C)C)nc32)[C@H](O)[C@@H]1O [Example 16, 6-[(2,2-diphenylethyl)amino]-9-{(2R,3R,4S,5S)-5-[(ethylamino)carbonyl]-3,4-dihydroxytetrahydro-2-furanyl}-N-[3-(isopropylamino)propyl]-9H-purine-2-carboxamide]	< 40
CCNC(=O)[C@H]1O[C@@H](n2cnc3c(NCC4c5ccccc5-c5ccccc54)nc(C(=O)NCCN4CCCCC4)nc32)[C@H](O)[C@@H]1O [Example 20, 9-{(2R,3R,4S,5S)-5-[(ethylamino)carbonyl]-3,4-dihydroxytetrahydro-2-furanyl}-6-[(9H-fluoren-9-ylmethyl)amino]-N-[2-(1-piperidinyl)ethyl]-9H-purine-2-carboxamide]	< 40
CCNC(=O)[C@H]1O[C@@H](n2cnc3c(NCC(c4ccccc4)c4ccccc4)nc(C(=O)NCCCN(C)C)nc32)[C@H](O)[C@@H]1O [Example 27, N-[3-(dimethylamino)propyl]-6-[(2,2-diphenylethyl)amino]-9-{(2R,3R,4S,5S)-5-[(ethylamino)carbonyl]-3,4-dihydroxytetrahydro-2-furanyl}-9H-purine-2-carboxamide]	< 40

The remaining lines, values ahead:

IC50 [nM]	Structure (SMILES)
< 40	CCNC(=O)[C@H]1O[C@@H](n2cnc3c(NCC(c4ccccc4)c4ccccc4)nc(C(=O)NCCCN4CCCC4)nc32)[C@H](O)[C@@H]1O [Example 7, 6-[(2,2-diphenylethyl)amino]-9-{(2R,3R,4S,5S)-5-[(ethylamino)carbonyl]-3,4-dihydroxytetrahydro-2-furanyl}-N-[3-(1-pyrrolidinyl)propyl]-9H-purine-2-carboxamide]
< 40	CCNC(=O)[C@H]1O[C@@H](n2cnc3c(NCC(c4ccccc4)c4ccccc4)nc(C(=O)NCCCN(CC)CC)nc32)[C@H](O)[C@@H]1O [Example 21, N-[3-(diethylamino)propyl]-6-[(2,2-diphenylethyl)amino]-9-{(2R,3R,4S,5S)-5-[(ethylamino)carbonyl]-3,4-dihydroxytetrahydro-2-furanyl}-9H-purine-2-carboxamide]
< 40	CCNC(=O)[C@H]1O[C@@H](n2cnc3c(NCC(c4ccccc4)c4ccccc4)nc(C(=O)NCCN4CCC(C)CC4)nc32)[C@H](O)[C@@H]1O [Example 31, 6-[(2,2-diphenylethyl)amino]-9-{(2R,3R,4S,5S)-5-[(ethylamino)carbonyl]-3,4-dihydroxytetrahydro-2-furanyl}-N-[2-(4-methyl-1-piperidinyl)ethyl]-9H-purine-2-carboxamide]
